The structures appear in SMILES notation. pIC50: −log10 of the molar value.

This assay addresses T1, human TRPV4 (Homo sapiens, UniProt Q9HBA0).
T1 construct: expressed in transfected cells; host or cells: HEK-293-MSR-II cells transduced with 1% BacMam virus
Kind of assay: Ligand-gated assay (Fluo4 calcium, FLIPR; inhibition of agonist-induced activation). The format is cell-based. The conditions noted are these: HEK-293-MSR-II cells transduced with BacMam human TRPV4; agonist at EC80. In a few lines: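 Agonist (EC80) response read on FLIPR as Fluo-4 (2 uM) fluorescence after 10-min room-temperature compound exposure in HBSS/HEPES pH 7.4 with 0.01% Chaps. Cells: HEK-293-MSR-II expressing human TRPV4 via BacMam; output is IC50 of inhibition.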

T1 sequence (Q9HBA0 whole entry): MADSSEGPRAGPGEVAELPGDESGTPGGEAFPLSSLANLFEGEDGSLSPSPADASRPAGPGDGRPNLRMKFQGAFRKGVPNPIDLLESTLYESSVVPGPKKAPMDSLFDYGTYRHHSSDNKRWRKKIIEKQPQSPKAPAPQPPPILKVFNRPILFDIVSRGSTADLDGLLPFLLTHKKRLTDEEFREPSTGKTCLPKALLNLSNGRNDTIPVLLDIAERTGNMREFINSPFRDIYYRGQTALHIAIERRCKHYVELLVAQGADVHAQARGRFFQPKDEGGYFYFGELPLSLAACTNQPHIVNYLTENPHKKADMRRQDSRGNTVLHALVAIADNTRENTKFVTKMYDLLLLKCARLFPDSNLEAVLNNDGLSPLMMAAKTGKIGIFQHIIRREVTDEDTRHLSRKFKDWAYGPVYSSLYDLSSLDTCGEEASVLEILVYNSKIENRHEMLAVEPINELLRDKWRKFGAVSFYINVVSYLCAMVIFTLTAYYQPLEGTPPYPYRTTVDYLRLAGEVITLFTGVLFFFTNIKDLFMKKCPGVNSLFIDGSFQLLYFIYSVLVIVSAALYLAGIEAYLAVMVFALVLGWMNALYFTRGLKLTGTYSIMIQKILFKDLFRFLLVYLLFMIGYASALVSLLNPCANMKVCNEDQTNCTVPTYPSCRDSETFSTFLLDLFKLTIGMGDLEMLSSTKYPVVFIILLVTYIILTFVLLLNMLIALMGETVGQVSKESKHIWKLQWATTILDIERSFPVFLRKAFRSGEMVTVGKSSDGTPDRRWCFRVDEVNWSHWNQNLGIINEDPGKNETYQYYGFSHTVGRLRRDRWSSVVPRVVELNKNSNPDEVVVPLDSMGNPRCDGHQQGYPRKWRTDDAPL

For orientation: pIC50 means the IC50 on a negative log10 scale, so that one unit is a factor of ten. With `CCOc1ccc(N2C[C@@]3(CCC[C@](C)(Cn4cnc5ccc(C#N)cc54)C3)OC2=O)nn1` [Example 136, 1-({(5S,7S)-3-[6-(ethyloxy)-3-pyridazinyl]-7-methyl-2-oxo-1-oxa-3-azaspiro[4.5]dec-7-yl}methyl)-1H-benzimidazole-6-carbonitrile], the pIC50 was 6.30 to 7.30.

With `C[C@]1(Cn2cnc3ccc(C#N)cc32)CCC[C@@]2(CN(c3ncccc3Cl)C(=O)O2)C1` [Example 137, 1-{[(5S,7S)-3-(3-chloro-2-pyridinyl)-7-methyl-2-oxo-1-oxa-3-azaspiro[4.5]dec-7-yl]methyl}-1H-benzimidazole-6-carbonitrile], the pIC50 is 7.30 to 8.00.

On to `COc1cccnc1N1C[C@@]2(CCC[C@](C)(Cn3cnc4ccc(C#N)cc43)C2)OC1=O` [Example 138, 1-({(5S,7S)-7-methyl-3-[3-(methyloxy)-2-pyridinyl]-2-oxo-1-oxa-3-azaspiro[4.5]dec-7-yl}methyl)-1H-benzimidazole-6-carbonitrile], for which the negative-log IC50 (pIC50) was 6.30 to 7.30.

On to `C[C@]1(Cn2cnc3ccc(C#N)cc32)CCC[C@@]2(CN(c3ccc(C(F)(F)F)nc3)C(=O)O2)C1` [Example 139, 1-({(5S,7S)-7-methyl-2-oxo-3-[6-(trifluoromethyl)-3-pyridinyl]-1-oxa-3-azaspiro[4.5]dec-7-yl}methyl)-1H-benzimidazole-6-carbonitrile], for which the pIC50 was 8.00 to 10.00.

Take `Cc1ccc(N2C[C@@]3(CCC[C@](C)(Cn4cnc5ccc(C#N)cc54)C3)OC2=O)cn1` [Example 140, 1-(((5S,7S)-7-methyl-3-(6-methylpyridin-3-yl)-2-oxo-1-oxa-3-azaspiro[4.5]decan-7-yl)methyl)-1H-benzo[d]imidazole-6-carbonitrile]: the pIC50 is 6.30 to 7.30.

With `COc1cc(OC)c(N2C[C@@]3(CCC[C@H](Cn4cnc5ccc(C#N)cc54)C3)OC2=O)cn1` [Example 141, 1-({(5S,7S)-3-[4,6-bis(methyloxy)-3-pyridinyl]-2-oxo-1-oxa-3-azaspiro[4.5]dec-7-yl}methyl)-1H-benzimidazole-6-carbonitrile], the pIC50 was 7.30 to 8.00.

For the molecule `CC(C)c1ccc(N2C[C@@]3(CCC[C@H](Cn4cnc5ccc(C#N)cc54)C3)OC2=O)cn1` [Example 142, 1-({(5S,7S)-3-[6-(1-methylethyl)-3-pyridinyl]-2-oxo-1-oxa-3-azaspiro[4.5]dec-7-yl}methyl)-1H-benzimidazole-6-carbonitrile], the negative logarithm of the IC50 (pIC50) is 7.30 to 8.00.

For the molecule `COc1cc(C)c(N2C[C@@]3(CCC[C@](CO)(Cn4cnc5ccc(C#N)cc54)C3)OC2=O)cn1` [Example 143, 1-((7-(hydroxymethyl)-3-(6-methoxy-4-methylpyridin-3-yl)-2-oxo-1-oxa-3-azaspiro[4.5]decan-7-yl)methyl)-1H-benzo[d]imidazole-6-carbonitrile], the pIC50 is 7.30 to 8.00.

Consider `C[C@]1(Cn2cnc3ccc(C#N)cc32)CCC[C@@]2(CN(c3cnccc3C(F)(F)F)C(=O)O2)C1` [Example 144, 1-(((5S,7S)-7-methyl-2-oxo-3-(4-(trifluoromethyl)pyridin-3-yl)-1-oxa-3-azaspiro[4.5]decan-7-yl)methyl)-1H-benzo[d]imidazole-6-carbonitrile], for which the pIC50 was 8.00 to 10.00.

On to `CN(C)c1ncc(N2C[C@@]3(CCC[C@](C)(Cn4cnc5ccc(C#N)cc54)C3)OC2=O)cn1` [Example 145, 1-(((5S,7S)-3-(2-(dimethylamino)pyrimidin-5-yl)-7-methyl-2-oxo-1-oxa-3-azaspiro[4.5]decan-7-yl)methyl)-1H-benzo[d]imidazole-6-carbonitrile], for which the pIC50 was 7.30 to 8.00.

Turning to `Cc1ccncc1N1C[C@@]2(CCC[C@](C)(Cn3cnc4ccc(C#N)cc43)C2)OC1=O` [Example 146, 1-(((5S,7S)-7-methyl-3-(4-methylpyridin-3-yl)-2-oxo-1-oxa-3-azaspiro[4.5]decan-7-yl)methyl)-1H-benzo[d]imidazole-6-carbonitrile], the pIC50 was 8.00 to 10.00.

Consider `CC(C)(O)c1cnc(N2C[C@@]3(CCC[C@](C)(Cn4cnc5ccc(C#N)cc54)C3)OC2=O)cn1` [Example 147, 1-(((5S,7S)-3-(5-(2-hydroxypropan-2-yl)pyrazin-2-yl)-7-methyl-2-oxo-1-oxa-3-azaspiro[4.5]decan-7-yl)methyl)-1H-benzo[d]imidazole-6-carbonitrile], for which the pIC50 was 8.00 to 10.00.

Turning to `CC(C)(O)c1ncc(N2C[C@@]3(CCC[C@](C)(Cn4cnc5ccc(C#N)cc54)C3)OC2=O)cn1` [Example 148, 1-(((5S,7S)-3-(2-(2-hydroxypropan-2-yl)pyrimidin-5-yl)-7-methyl-2-oxo-1-oxa-3-azaspiro[4.5]decan-7-yl)methyl)-1H-benzo[d]imidazole-6-carbonitrile], the pIC50 was 7.30 to 8.00.

`COc1ccncc1N1C[C@@]2(CCC[C@](C)(Cn3cnc4ccc(C#N)cc43)C2)OC1=O` [Example 149, 1-(((5S,7S)-3-(4-methoxypyridin-3-yl)-7-methyl-2-oxo-1-oxa-3-azaspiro[4.5]decan-7-yl)methyl)-1H-benzo[d]imidazole-6-carbonitrile]: the pIC50 was 6.30 to 7.30.

Take `CN(C)c1cnc(N2C[C@@]3(CCC[C@](C)(Cn4cnc5ccc(C#N)cc54)C3)OC2=O)cn1` [Example 150, 1-(((5S,7S)-3-(5-(dimethylamino)pyrazin-2-yl)-7-methyl-2-oxo-1-oxa-3-azaspiro[4.5]decan-7-yl)methyl)-1H-benzo[d]imidazole-6-carbonitrile]: the pIC50 was 6.30 to 7.30.

On to `N#Cc1ccc2ncn(C[C@H]3CCC[C@]4(C3)CN(Cc3csc5ncccc35)C(=O)O4)c2c1` [Example 151, 1-{[(5S,7S)-2-oxo-3-(thieno[2,3-b]pyridin-3-ylmethyl)-1-oxa-3-azaspiro[4.5]dec-7-yl]methyl}-1H-benzimidazole-6-carbonitrile], for which the pIC50 is 6.30 to 7.30.

For `N#Cc1ccc2ncn(C[C@H]3CCC[C@]4(C3)CN(Cc3sc5ncccc5c3Br)C(=O)O4)c2c1` [Example 153], the pIC50 is 8.00 to 10.00.

On to `COC(C)c1noc(C(C)(C)CN2C[C@@]3(CCC[C@H](Cn4cnc5ccc(C#N)cc54)C3)OC2=O)n1` (stereo partly drawn) [Example 154, 1-{[(5S,7S)-3-(2-methyl-2-{3-[1-(methyloxy)ethyl]-1,2,4-oxadiazol-5-yl}propyl)-2-oxo-1-oxa-3-azaspiro[4.5]dec-7-yl]methyl}-1H-benzimidazole-6-carbonitrile], for which the negative logarithm of the IC50 (pIC50) was 8.00 to 10.00.

For the molecule `CCOc1cnc(CN2C[C@@]3(CCC[C@](C)(Cn4cnc5ccc(C#N)cc54)C3)OC2=O)cn1` [Example 155], the pIC50 is 8.00 to 10.00.

As for `CCOc1ccnc(CN2C[C@@]3(CCC[C@](C)(Cn4cnc5ccc(C#N)cc54)C3)OC2=O)c1` [Example 156, 1-(((5S,7S)-3-((4-ethoxypyridin-2-yl)methyl)-7-methyl-2-oxo-1-oxa-3-azaspiro[4.5]decan-7-yl)methyl)-1H-benzo[d]imidazole-6-carbonitrile], the pIC50 is 8.00 to 10.00.

Consider `C[C@]1(Cn2cnc3ccc(C#N)cc32)CCC[C@@]2(CN(Cc3ccc(F)cn3)C(=O)O2)C1` [Example 159, 1-(((5S,7S)-3-((5-fluoropyridin-2-yl)methyl)-7-methyl-2-oxo-1-oxa-3-azaspiro[4.5]decan-7-yl)methyl)-1H-benzo[d]imidazole-6-carbonitrile], for which the negative-log IC50 (pIC50) was 8.00 to 10.00.

Take `Cn1cc(-c2ccnc(CN3C[C@@]4(CCC[C@](C)(Cn5cnc6ccc(C#N)cc65)C4)OC3=O)c2)cn1` [Example 160, 1-(((5S,7S)-7-methyl-3-((4-(1-methyl-1H-pyrazol-4-yl)pyridin-2-yl)methyl)-2-oxo-1-oxa-3-azaspiro[4.5]decan-7-yl)methyl)-1H-benzo[d]imidazole-6-carbonitrile]: the pIC50 was 8.00 to 10.00.

For `Cn1cc(-c2cccc(CN3C[C@@]4(CCC[C@](C)(Cn5cnc6ccc(C#N)cc65)C4)OC3=O)n2)cn1` [Example 161, 1-(((5S,7S)-7-methyl-3-((6-(1-methyl-1H-pyrazol-4-yl)pyridin-2-yl)methyl)-2-oxo-1-oxa-3-azaspiro[4.5]decan-7-yl)methyl)-1H-benzo[d]imidazole-6-carbonitrile], the negative-log IC50 (pIC50) is 8.00 to 10.00.

Take `COC(C)(C)c1cnc(N2C[C@@]3(CCC[C@](C)(Cn4cnc5ccc(C#N)cc54)C3)OC2=O)cn1` [Example 162, 1-(((5S,7S)-3-(5-(2-methoxypropan-2-yl)pyrazin-2-yl)-7-methyl-2-oxo-1-oxa-3-azaspiro[4.5]decan-7-yl)methyl)-1H-benzo[d]imidazole-6-carbonitrile]: the pIC50 was 8.00 to 10.00.

Regarding `COCCOC(C)(C)c1cnc(N2C[C@@]3(CCC[C@](C)(Cn4cnc5ccc(C#N)cc54)C3)OC2=O)cn1` [Example 163, 1-(((5S,7S)-3-(5-(2-(2-methoxyethoxy)propan-2-yl)pyrazin-2-yl)-7-methyl-2-oxo-1-oxa-3-azaspiro[4.5]decan-7-yl)methyl)-1H-benzo[d]imidazole-6-carbonitrile], the pIC50 was 8.00 to 10.00.

As to `CC(C)(OCCOP(C)(C)=O)c1cnc(N2C[C@@]3(CCC[C@](C)(Cn4cnc5ccc(C#N)cc54)C3)OC2=O)cn1` [Example 164, 2-((2-(5-((5S,7S)-7-((6-cyano-1H-benzo[d]imidazol-1-yl)methyl)-7-methyl-2-oxo-1-oxa-3-azaspiro[4.5]decan-3-yl)pyrazin-2-yl)propan-2-yl)oxy)ethyl dimethylphosphinate], the pIC50 was 7.30 to 8.00.

As for `Cc1cc(-c2ccc(F)cn2)ncc1N1C[C@@]2(CCC[C@](C)(Cn3cnc4ccc(C#N)cc43)C2)OC1=O` [Example 165, 1-(((5S,7S)-3-(5′-fluoro-4-methyl-[2,2′-bipyridin]-5-yl)-7-methyl-2-oxo-1-oxa-3-azaspiro[4.5]decan-7-yl)methyl)-1H-benzo[d]imidazole-6-carbonitrile], the pIC50 is 8.00 to 10.00.

With `Cc1cc(N2CCOCC2)ncc1N1C[C@@]2(CCC[C@](C)(Cn3cnc4ccc(C#N)cc43)C2)OC1=O` [Example 166, 1-(((5S,7S)-7-methyl-3-(4-methyl-6-morpholinopyridin-3-yl)-2-oxo-1-oxa-3-azaspiro[4.5]decan-7-yl)methyl)-1H-benzo[d]imidazole-6-carbonitrile], the pIC50 is 8.00 to 10.00.

For the origin of these results see patent US9187464B2, “TRPV4 antagonists” (GlaxoSmithKline Intellectual Property (No. 2) Limited, priority 2011, dated 2015).
